Assay results as given in publication PMC3925373 (Bioorganic & medicinal chemistry, 2013).
Structures can show the parent of a compound that is named as a salt. Where two headings read alike, the source gives them in different places.

Columns and labels:
[1] = molecular target: T1, Human matrix metalloprotease-1 (Homo sapiens, UniProt P03956); assay: Human MMP-1 FRET assay; type: biochemical
T1 sequence (P03956 100-469): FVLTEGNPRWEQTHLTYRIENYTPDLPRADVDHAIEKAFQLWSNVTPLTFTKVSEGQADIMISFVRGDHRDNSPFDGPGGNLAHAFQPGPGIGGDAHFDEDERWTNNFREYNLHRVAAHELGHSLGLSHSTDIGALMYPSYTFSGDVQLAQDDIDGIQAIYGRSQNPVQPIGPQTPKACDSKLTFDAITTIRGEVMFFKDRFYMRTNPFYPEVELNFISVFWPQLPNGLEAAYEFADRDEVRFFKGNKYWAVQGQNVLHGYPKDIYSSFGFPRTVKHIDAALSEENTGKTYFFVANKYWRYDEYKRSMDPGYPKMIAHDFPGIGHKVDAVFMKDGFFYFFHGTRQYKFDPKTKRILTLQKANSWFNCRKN

[2] = molecular target: Bacillus anthracis lethal factor (Bacillus anthracis, UniProt P15917); assay: biochemical; type: biochemical
Chain of Bacillus anthracis lethal factor (P15917 34-809 limits assumed): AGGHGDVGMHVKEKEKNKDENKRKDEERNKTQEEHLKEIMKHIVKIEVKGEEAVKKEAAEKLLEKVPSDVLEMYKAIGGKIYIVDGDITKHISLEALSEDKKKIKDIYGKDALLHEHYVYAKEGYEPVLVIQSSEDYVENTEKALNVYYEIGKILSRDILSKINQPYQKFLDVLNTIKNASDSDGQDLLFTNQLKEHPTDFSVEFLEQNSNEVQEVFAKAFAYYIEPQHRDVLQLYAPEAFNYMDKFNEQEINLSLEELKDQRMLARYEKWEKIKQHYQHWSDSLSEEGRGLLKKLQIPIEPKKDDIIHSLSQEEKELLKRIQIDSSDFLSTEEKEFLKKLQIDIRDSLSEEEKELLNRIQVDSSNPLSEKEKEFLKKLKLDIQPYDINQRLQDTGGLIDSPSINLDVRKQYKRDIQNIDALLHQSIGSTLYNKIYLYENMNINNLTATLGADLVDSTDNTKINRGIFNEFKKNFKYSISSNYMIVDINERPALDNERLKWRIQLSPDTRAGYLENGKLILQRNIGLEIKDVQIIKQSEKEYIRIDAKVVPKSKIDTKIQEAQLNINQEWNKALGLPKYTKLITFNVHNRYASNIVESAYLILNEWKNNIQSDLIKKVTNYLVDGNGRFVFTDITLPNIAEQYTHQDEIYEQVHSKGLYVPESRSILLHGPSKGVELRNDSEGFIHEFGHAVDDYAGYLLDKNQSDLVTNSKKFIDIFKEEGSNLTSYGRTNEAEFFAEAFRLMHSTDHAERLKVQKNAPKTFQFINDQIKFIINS

BaLF = BaLF (Bacillus anthracis, UniProt P15917); type: biochemical
Chain of BaLF (P15917 34-809 limits assumed): as above

BoNT/A LC = BoNT/A LC (Clostridium botulinum, UniProt P0DPI0); assay: biochemical; type: biochemical, Clostridium bolulinum
Chain of BoNT/A LC (P0DPI0 2-448 limits assumed): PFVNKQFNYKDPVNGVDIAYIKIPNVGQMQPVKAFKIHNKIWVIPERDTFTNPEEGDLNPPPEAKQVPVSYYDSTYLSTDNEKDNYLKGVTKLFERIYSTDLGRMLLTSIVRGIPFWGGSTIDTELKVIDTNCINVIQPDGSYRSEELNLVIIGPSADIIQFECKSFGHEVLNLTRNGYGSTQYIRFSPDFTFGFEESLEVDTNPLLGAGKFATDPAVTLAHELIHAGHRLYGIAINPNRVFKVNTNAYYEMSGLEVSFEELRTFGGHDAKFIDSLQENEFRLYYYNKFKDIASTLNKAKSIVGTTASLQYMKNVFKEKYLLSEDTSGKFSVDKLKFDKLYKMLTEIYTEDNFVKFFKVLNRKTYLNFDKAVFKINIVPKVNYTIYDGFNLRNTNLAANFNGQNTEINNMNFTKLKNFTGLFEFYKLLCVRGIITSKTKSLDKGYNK

## Cc1cc(N)c2cc(NC(=O)Nc3ccc4nc(C)cc(N)c4c3)ccc2n1 [Compound 1]
[1]
  IC50: > 100 µM

## Cc1cc(N)c2cc(NC(=O)CCc3ccccc3C)ccc2n1 [Compound 18aa, N-(4-Amino-2-methylquinolin-6-yl)-3-(2-methylphenyl)propionamide trifluoroacetate]
[2]
  LF inhibitory activity (in words): inactive

## COc1ccc(Br)cc1CCC(=O)Nc1ccc2nc(C)cc(N)c2c1 [Compound 18ee, N-(4-Amino-2-methylquinolin-6-yl)-3-(5-bromo-2-methoxyphenyl)propionamide trifluoroacetate]
[2]
  LF inhibitory activity (in words): inactive

## COc1ccc(Cl)cc1CCC(=O)Nc1ccc2nc(C)cc(N)c2c1 [Compound 18ff, N-(4-Amino-2-methylquinolin-6-yl)-3-(5-chloro-2-methoxyphenyl)propionamide trifluoroacetate]
[2]
  LF inhibitory activity (in words): inactive

## CCOc1ccccc1CCC(=O)Nc1ccc2nc(C)cc(N)c2c1 [Compound 18ii, N-(4-Amino-2-methylquinolin-6-yl)-3-(2-ethoxyphenyl)propionamide trifluoroacetate]
[2]
  LF inhibitory activity (in words): activity was also totally lost

## Cc1cc(N)c2cc(NC(=O)c3ccc(-c4ccc5ncccc5c4)cc3)ccc2n1 [Compound 18m, N-(4-Amino-2-methylquinolin-6-yl)-4-(quinoline-6-yl)benzamide trifluoroacetate]
BaLF
  mechanism of inhibition on BaLF activity: noncompetitive

## COc1ccncc1CCC(=O)Nc1ccc2nc(C)cc(N)c2c1 [Compound 18oo, N-(4-Amino-2-methylquinolin-6-yl)-3-(4-methoxypyridin-3-yl)propionamide]
[2]
  LF inhibitory activity (in words): devoid of activity

## COc1ccsc1CCC(=O)Nc1ccc2nc(C)cc(N)c2c1 [Compound 18pp, N-(4-Amino-2-methylquinolin-6-yl)-3-(3-methoxythiophene-2-yl)propionamide trifluoroacetate]
[2]
  LF inhibitory activity (in words): devoid of activity

## COc1ccccc1CCC(=O)Nc1ccc2nc(C)cc(N)c2c1 [Compound 18t, N-(4-Amino-2-methylquinolin-6-yl)-3-(2-methoxyphenyl)propionamide trifluoroacetate]
BaLF
  mechanism of inhibition on BaLF activity: noncompetitive

## COc1ccc(CCC(=O)Nc2ccc3nc(C)cc(N)c3c2)cc1 [Compound 18u, N-(4-Amino-2-methylquinolin-6-yl)-3-(4-methoxyphenyl)propionamide p-toluenesulfonate]
[2]
  LF inhibitory activity (in words): LF inhibitory activity was lost

## COc1cccc(CCC(=O)Nc2ccc3nc(C)cc(N)c3c2)c1 [Compound 18v, N-(4-Amino-2-methylquinolin-6-yl)-3-(3-methoxyphenyl)propionamide trifluoroacetate]
[2]
  LF inhibitory activity (in words): LF inhibitory activity was lost

## COc1ccc(OC)c(CCC(=O)Nc2ccc3nc(C)cc(N)c3c2)c1 [Compound 18w, N-(4-Amino-2-methylquinolin-6-yl)-3-(2,5-dimethoxyphenyl)propionamide p-toluenesulfonate]
[2]
  LF inhibitory activity (in words): complete loss of activity

## COc1cccc(CCC(=O)Nc2ccc3nc(C)cc(N)c3c2)c1OC [Compound 18x, N-(4-Amino-2-methylquinolin-6-yl)-3-(2,3-dimethoxyphenyl)propionamide p-toluenesulfonate]
[2]
  LF inhibitory activity (in words): complete loss of activity

## Cc1cc(N)c2cc(NC(=O)CCc3ccccc3OC(=O)c3ccccc3)ccc2n1 [Compound 18y, N-(4-Amino-2-methylquinolin-6-yl)-3-(2-benzoyloxyphenyl)propionamide trifluoroacetate]
[2]
  LF inhibitory activity (in words): inactive

## Cc1cc(N)c2cc(NC(=O)CCc3ccccc3Cl)ccc2n1 [Compound 18z, N-(4-Amino-2-methylquinolin-6-yl)-3-(2-chlorophenyl)propionamide trifluoroacetate]
[2]
  LF inhibitory activity (in words): inactive

## Cc1cc(N)c2cc(NC(=O)Nc3ccc4c(c3)OCO4)ccc2n1 [Compound 20a, 1-(4-Amino-2-methylquinolin-6-yl)-3-(benzo[d][1,3]dioxol-5-yl)urea trifluoroacetate]
[2]
  IC50: 87 µM
BoNT/A LC
  IC50: 51 µM

## COc1cc(-c2cccnc2)ccc1CCC(=O)Nc1ccc2nc(C)cc(N)c2c1 [Compound 35, N-(4-Amino-2-methylquinolin-6-yl)-3-(2-methoxy-4-(pyridin-3-yl)phenyl)propanamide]
[2]
  IC50: 55 µM

## N-(4-Amino-2-methylquinolin-6-yl)isoquinoline-3-carboxamide trifluoroacetate [Compound 18h]
BoNT/A LC; read-out: IC50 BoNT/A
  IC50: > 100 µM

## N-(4-Amino-2-methylquinolin-6-yl)quinoline-2-carboxamide trifluoroacetate [Compound 18g]
[2]; read-out: IC50 LF
  IC50: 52 µM
